In US20250170183A1, “METHOD FOR ENRICHING MUSE CELLS AND OBTAINING EXOSOMES, MICROVESICLES OR THE SECRETOME THEREFROM” (priority 2022, published 2025):

Tested on: Carrageenan-induced paw edema
Assay: Carrageenan-induced paw edema model
Assay type: in vivo, C57BL/6 mice
Settings: single i.p. dose, 1.5 hours after administration; FIG. 5
Description: In order to assess the anti-inflammatory effect of the Muse cell derived EVs, various EV fractions were analyzed for anti-inflammatory efficacy using the paw edema model [16].
In our initial experiment, fifty-five female C57BL/6 mice (Charles River, Eastern Europe) were randomly assigned to one of five treatment groups: • (1) (−) Control (PBS) • (2) (+) Control (Dexamethasone: 20-30 mg/kg) • (3) EV100 (1, 10, or 100 billion EVs) • (4) EV500 (1, 10, or 100 billion EVs) • (5) Muse cell enriched culture (100K, 1 million, or 10 million cells)
Paw edema was induced in each animal by intra-plantar injection of 20 μl of a 1% (w/v) aqueous Carrageenan solution (SIGMA Aldrich) into the right hind paw.
Thirty minutes after the carrageenan injection, each animal received one dose of the control agent (treatment groups 1-2) or experimental agents (treatment groups 3-5) according to the respective assigned treatment group. The agent was administered by intra peritoneal (i.p.) injection. PBS was also used to resuspend EV100 and EV500 samples.
The intensity of the edema development and/or the amelioration thereof was assessed by measuring the paw width (the distance from one outer finger to the opposite outer finger) or paw thickness of the treated paw prior to treatment administration, and 2 h, 24 h, 48 h, and 72 h after administration of the control and experimental agents. […]

Compound: C[C@@H]1C[C@H]2[C@@H]3CCC4=CC(=O)C=C[C@]4(C)[C@@]3(F)[C@@H](O)C[C@]2(C)[C@@]1(O)C(=O)CO [dexamethasone]
- paw thickness, immediate response: no effect
